Reference: article PMC8309046 (Pharmaceutics, 2021)
Where a name gives a salt, the structure may show the parent alone. Read-outs that look alike come from different tables or passages of the source.

What was measured:
[1] = biological target: T1, PptT (Mycobacterium tuberculosis, UniProt O33336); experiment: LOPAC1280 single-point BpsA (indigoidine) end-point screen for PptT inhibitors; assay type: biochemical; settings: for activity at 20 µM / % Activity in PptT Screen: single concentration (20 µM per Figure S4), 0.4 µM PptT, 0.6 µM apo-BpsA, 10 µM CoA, A590 relative to no-inhibitor positive controls
T1 sequence (O33336 whole entry): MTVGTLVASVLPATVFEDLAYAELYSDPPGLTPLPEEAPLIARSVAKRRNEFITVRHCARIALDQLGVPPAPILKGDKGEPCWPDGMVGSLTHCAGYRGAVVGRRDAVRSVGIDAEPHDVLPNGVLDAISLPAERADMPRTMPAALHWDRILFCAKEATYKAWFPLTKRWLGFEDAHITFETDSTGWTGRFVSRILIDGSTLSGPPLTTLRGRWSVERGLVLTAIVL

[2] = biological target: T2, holo-BpsA (Streptomyces lavendulae, UniProt Q1MWN4); experiment: Counter-screen against pre-activated holo-BpsA (indigoidine synthesis); assay type: biochemical; settings: for Inhibition of indigoidine synthesis by holo-BpsA in LOPAC1280 counter-screen: 0.6 µM holo-BpsA, no PPTase, screening concentration; for Inhibition of holo-BpsA: re-screen at higher concentration of 40 µM; for inhibition at 40 µM: read-out: Inhibition of holo-BpsA
T2 construct: made in house; host or cells: E. coli BL21(DE3) ΔentD
T2 sequence (Q1MWN4 1-1282): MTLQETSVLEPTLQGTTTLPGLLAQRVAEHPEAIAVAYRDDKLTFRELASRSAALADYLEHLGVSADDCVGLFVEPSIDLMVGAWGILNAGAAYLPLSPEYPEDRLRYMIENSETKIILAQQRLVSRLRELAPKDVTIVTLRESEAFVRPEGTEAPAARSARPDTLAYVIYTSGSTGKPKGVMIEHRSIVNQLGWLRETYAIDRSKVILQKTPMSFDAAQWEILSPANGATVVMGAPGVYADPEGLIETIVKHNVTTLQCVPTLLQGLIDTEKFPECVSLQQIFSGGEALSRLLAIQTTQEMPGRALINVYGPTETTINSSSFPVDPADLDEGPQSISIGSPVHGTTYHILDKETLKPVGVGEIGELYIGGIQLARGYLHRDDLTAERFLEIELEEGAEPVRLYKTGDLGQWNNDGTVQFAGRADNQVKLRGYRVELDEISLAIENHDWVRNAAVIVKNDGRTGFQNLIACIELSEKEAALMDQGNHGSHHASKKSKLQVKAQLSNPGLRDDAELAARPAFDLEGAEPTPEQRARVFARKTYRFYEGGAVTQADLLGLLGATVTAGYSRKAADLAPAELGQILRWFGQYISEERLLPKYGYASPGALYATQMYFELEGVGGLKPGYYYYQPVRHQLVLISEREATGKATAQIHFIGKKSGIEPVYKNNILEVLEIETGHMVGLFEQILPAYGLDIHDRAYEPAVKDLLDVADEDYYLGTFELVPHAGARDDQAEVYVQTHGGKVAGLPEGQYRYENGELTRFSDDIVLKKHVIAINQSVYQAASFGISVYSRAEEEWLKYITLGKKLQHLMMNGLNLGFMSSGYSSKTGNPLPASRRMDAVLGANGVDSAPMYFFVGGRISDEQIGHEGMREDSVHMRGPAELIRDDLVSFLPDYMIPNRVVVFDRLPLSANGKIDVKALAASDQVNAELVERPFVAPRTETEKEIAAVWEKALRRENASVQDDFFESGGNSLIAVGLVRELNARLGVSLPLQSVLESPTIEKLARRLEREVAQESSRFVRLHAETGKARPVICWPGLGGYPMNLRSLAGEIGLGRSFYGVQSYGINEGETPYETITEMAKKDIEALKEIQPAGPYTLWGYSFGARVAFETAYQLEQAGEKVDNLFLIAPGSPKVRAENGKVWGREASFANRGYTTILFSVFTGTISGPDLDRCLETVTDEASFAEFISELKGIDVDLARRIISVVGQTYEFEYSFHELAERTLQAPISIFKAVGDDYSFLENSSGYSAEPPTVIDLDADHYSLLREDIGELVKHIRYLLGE
Description: The Sigma-Aldrich LOPAC^1280 collection was first diluted to a working stock of […] per compound. To screen the collection, 88 reactions at a time were established in columns 1–11 of a standard 96 well-plate. Each was prepared from 30 µL of reaction mix comprising 50 mM Tris-Cl (pH 8.0), 0.01% (v/v) Triton-X, 10 mM MgCl2, 5 mM ATP, 5 mM L-glutamine and 10 µM CoA. Next, a CyBio liquid handler was used to pin 2 µL of compound into columns 2–11 and 2 µL of DMSO into column 1. To screen for PptT inhibitors, 10 µL of PPTase mix comprising a freshly-prepared stock of 0.4 µM PptT and 50 mM Tris-Cl (pH 8.0) was added to wells A1–C1 and columns 2–11 (see Supplementary Figure S1). To initiate indigoidine synthesis, 10 µL of 0.6 µM apo-BpsA in 50 mM Tris-Cl (pH 8.0) was added to each well. To screen for holo-BpsA inhibitors, an equivalent screening format was established only using 0.6 µM holo-BpsA and with no PPTase mix added. Each plate was then shaken at 1000 rpm for 10 s and incubated at room temperature for 1 h. Indigoidine was then resolubilised by the addition of 200 µL DMSO and incubation at 37 °C with shaking at 200 rpm for 0.5 h. A Perkin Elmer Enspire plate reader was then used to record the absorbance readings at 590 nm. The Python package Pandas was used to process the data, which was then visualised using the Python package Seaborn.

[3] = biological target: T1, PptT; experiment: BpsA end-point dose-response assay of PptT inhibition (EC50); assay type: biochemical; settings: for EC50: end-point assay, two-fold serial dilution from 40 µM, 0.4 µM PptT, 0.6 µM apo-BpsA, three independent replicates ± standard error
[4] = system: SARS-CoV-2 protease; settings: LOPAC1280 screen, FRET-based reporter; cited from earlier work
[5] = biological target: T1, PptT; assay type: biochemical; settings: kinetic assay, serial dilution 200 µM to 0.2 µM; 0.4 µM PptT, 0.6 µM apo-BpsA
[6] = system: PPTases; set-up: method as in PMID 20094656, PMID 21466506, PMID 33118808; settings: cited from earlier work
[7] = system: Sfp; set-up: method as in PMID 24192555; settings: cited from earlier work
[8] = system: M. tuberculosis PptT; set-up: method as in PMID 24963544; settings: cited from earlier work

| Compound | % Activity in PptT Screen [1] | EC50 [3] | Hit as SARS-CoV-2 protease inhibitor [4] | also measured |
| --- | --- | --- | --- | --- |
| CN(C)CC/C=C1/c2ccccc2Sc2ccc(Cl)cc21 [chlorprothixene hydrochloride] | – | – | – | Registered as inhibitor of PptT in primary screen (result in words) ([1]; LOPAC1280 primary screen): did not register as an inhibitor of PptT; Inhibition of indigoidine synthesis by holo-BpsA in LOPAC1280 counter-screen [2]: inhibiting indigoidine synthesis |
| Nc1c(S(=O)(=O)O)cc(Nc2ccc(Nc3nc(Cl)nc(Nc4cccc(S(=O)(=O)O)c4)n3)c(S(=O)(=O)O)c2)c2c1C(=O)c1ccccc1C2=O [Reactive Blue 2] | – | – | – | activity at 20 µM [1]: 38% |
| COc1cc(/C=C(\C#N)C(=O)c2ccc(O)c(O)c2)cc(I)c1O [I-OMe-Tyrphostin AG 538] | 40% | – | – | – |
| CC(C)(C)c1ccc(S(=O)(=O)/C=C/C#N)cc1 [Bay 11-7085] | 10% | 7.4 ± 0.4 µM | strong protease inhibitors | – |
| CCCCCCCCCCC/C=C\C(C)(C)/C=C\CCCC(=O)O [7,7-Dimethyl-(5z,8z)-eicosadienoic acid] | 49% | – | – | Inhibition of holo-BpsA [2]: less than 15% |
| Br.CCCN(CCC)C1CCc2cccc(O)c2C1 (stereo not shown) [8-hydroxy-DPAT hydrobromide] | – | – | – | Inhibitory activity on PptT in serial dilution (result in words) ([3]; two-fold serial dilutions (40 µM to 0.3 µM) in PptT/apo-BpsA reaction mix): no inhibitory activity was observed |
| Br.CN=c1nc(-c2ccccc2)n(-c2ccccc2)s1 [SCH-202676 hydrobromide] | 0.7% | 5.9 ± 0.1 µM | – | Inhibition of holo-BpsA [2]: noticeably inhibitory |
| COc1ccc2c(c1)CC[C@@H]1[C@@H]2CC[C@]2(C)[C@@H](NCCCCCCN3C(=O)C=CC3=O)CC[C@@H]12 [U-73122] | 44% | 8.1 ± 0.5 µM | strong protease inhibitors | – |
| O=C(O)C1=CC(=C(c2ccc(O)c(C(=O)O)c2)c2ccc(O)c(C(=O)O)c2)C=CC1=O [Aurintricarboxylic acid] | – | 4.8 ± 0.9 µM | strong protease inhibitors | activity at 20 µM [1]: 32% |
| O=Nc1ccc2oc(=O)ccc2c1 [6-Nitroso-1,2-benzopyrone] | 12% | 8.3 ± 1.7 µM | strong protease inhibitors | EC50 [5]: 4.4 ± 1.2 µM; Inhibition of holo-BpsA [2]: less than 15%; Activity in vitro against PPTases [6]: activity in vitro against numerous PPTases |
| C[n+]1cc2c3c(ccc2c2ccc4cc5c(cc4c21)OCO5)OCO3 [Sanguinarine chloride] | – | – | strong protease inhibitors | activity at 20 µM [1]: 44%; inhibition at 40 µM [2]: < 15%; Reported as inhibitor of Sfp [7]: inhibitor; Reported as inhibitor of M. tuberculosis PptT [8]: inhibitor |
| O=C(O)c1cc[c]([Hg][Cl])cc1 [4-chloromercuribenzoic acid] | – | – | – | Inhibition of indigoidine synthesis by holo-BpsA in LOPAC1280 counter-screen [2]: inhibiting indigoidine synthesis |
| N#C/C(=C\c1ccc(O)c(O)c1)C(=O)NCCCNC(=O)/C(C#N)=C/c1ccc(O)c(O)c1 [Tyrphostin AG 537] | 35% | 5.9 ± 0.5 µM | – | – |
| O=c1c2ccccc2[se]n1-c1ccccc1 [ebselen] | – | – | – | Inhibition of indigoidine synthesis by holo-BpsA in LOPAC1280 counter-screen [2]: inhibiting indigoidine synthesis |
| N#C/C(=C\c1ccc(O)c(O)c1)C(=O)c1ccc(O)c(O)c1 [Tyrphostin AG 538] | 24% | 6.4 ± 0.7 µM | – | – |
| NC(Cc1cc(O)c(O)cc1O)C(=O)O (racemic) [6-Hydroxy-DL-DOPA] | 26% | – | strong protease inhibitors | Inhibition of holo-BpsA [2]: less than 15% |
| CC(=O)c1c(O)c(C)c(O)c(Cc2c(O)c3c(c(C(=O)/C=C/c4ccccc4)c2O)OC(C)(C)C=C3)c1O [Rottlerin] | – | – | – | activity at 20 µM [1]: 48% |
| Tyrphostin AG 808 | 34% | – | – | – |
| CCN(CC)C(=S)SSC(=S)N(CC)CC [Disulfiram] | – | 6 ± 1.5 µM | strong protease inhibitors | activity at 20 µM [1]: 9%; inhibition at 40 µM [2]: < 15% |
| Cc1ccc(C(=O)Nc2ccc(S(=O)(=O)O)c3cc(S(=O)(=O)O)cc(S(=O)(=O)O)c23)cc1NC(=O)c1cccc(NC(=O)Nc2cccc(C(=O)Nc3cc(C(=O)Nc4ccc(S(=O)(=O)O)c5cc(S(=O)(=O)O)cc(S(=O)(=O)O)c45)ccc3C)c2)c1 [suramin hexasodium] | – | – | – | Inhibition of indigoidine synthesis by holo-BpsA in LOPAC1280 counter-screen [2]: inhibiting indigoidine synthesis |
| O=C1Nc2ccc(I)cc2/C1=C/c1cc(Br)c(O)c(Br)c1 [GW5074] | 43% | – | – | – |
| N=C1Sc2ccccc2C2=NCCCN12 [PD 404, 182] | 35% | – | strong protease inhibitors | – |
